# Test system: IL-6 mediated proliferation of B9.9 cells
# Assay: IL-6-dependent B9.9 cell proliferation assay
# Format: cell-based, mouse
# Details: peptide concentration = 250 μM
# Description: Peptides according to the invention were synthesized by the solid phase peptide synthesis method (Merrifield, J. Am. Chem. Soc. 85:2149, 1963). The amino acid numbering of peptides derived from the IL-6 receptor (IL-6R) sequence is based on the published sequence of Yamasaki, et al, (Science 241:825, 1988), and numbering of peptides derived from the IL-6 sequence is based on the sequence of IL-6 as published by Hirano, et al. (Nature 324:73, 1986). The numbering refers to the position of the amino acids in the mature protein after excision of the signal sequence. Activity was established in an IL-6-dependent B9.9 cell proliferation assay as described hereunder.
# IL-6 antagonist activity of the subject peptides was measured using the IL-6 dependent B9.9 hybridoma cell line as described in Brakenhoff et al., J. Immunol. […]
# 1×10^4 cells were cultured in presence of 4-fold serial dilutions (1:16 to 1:65,536) of F-IL-6 in RPMI supplemented with 10% fetal calf serum, 2 mM L-glutamine, and 5 ×10^-5 M 2-mercaptoethanol in flat bottom microtiter plates. After 2 days the cells were incubated for 4 hours with 3-(4,5-dimethylthiazol-2-yl)-diphenyl tetrazolium bromide (MTT) and the absorbance was measured at 570-650 nm as described in Mosmann, J. Immunol. […] One unit of IL-6 was defined as the amount of IL-6 required to obtain half maximal proliferation and was calculated by probit analysis. […]
row,Substance,Percent Inhibition of IL-6 mediated proliferation of B9.9 cells [%]
1,Ac-GQLRAQEEFGQGE-NH2 [Ac-GQLRAQEEFGQGE-NH2],92 ± 6
2,GAAAENNNLNLP,29 ± 19

# From US5210075A, “Interleukin 6 antagonist peptides” (Tanabe Seiyaku Co., Ltd., priority 1990, dated 1993)
